Laboratory results from patent publication US6436981B1 (dated 2002).

melting point [°C] | Structure (SMILES)
146 to 148 | CO/N=C(C)/C(=N/N=C/c1ccccc1-n1c(OC)nn(C)c1=O)C1CC1
157 to 161 | CON=C(C(C)=NN=Cc1ccccc1-n1c(OC)nn(C)c1=O)c1cccc(C(F)(F)F)c1
